Data as given in US7449498B2, “Composite materials for bone defect filling and bone replacement” (Yesbio Co., Ltd., priority 2005, dated 2008).

Experiment: Measurement of exothermic temperature during polymerization
Assay type: physicochemical
Settings: FIG. 3
Procedure: The composite material was mixed for 30 seconds and injected to a mold having a size in 5 mm of height and 3 mm of radius. Then, the temperature changes was measured in 3 samples per each group by inserting a thermocouple and read with a thermocouple reader (Yocogawa, Japan).

- temperature changes during polymerizing, in words: excessively exothermic
SMILES: C=C(C#N)C(=O)OCCCC [BCA, n-butyl-2-cyanoacrylate]
